Test results: US20260265227A1, “AMIDE PRODRUGS AND USES THEREOF” (Autobahn Therapeutics, Inc., priority 2022, published 2026)

Target: T1, recombinant human FAAH (rhFAAH) (Homo sapiens, UniProt O00519)
T1 construct: purchased Cayman Chemical (Ann Arbor, MI, USA)
T1 sequence (O00519 1-579): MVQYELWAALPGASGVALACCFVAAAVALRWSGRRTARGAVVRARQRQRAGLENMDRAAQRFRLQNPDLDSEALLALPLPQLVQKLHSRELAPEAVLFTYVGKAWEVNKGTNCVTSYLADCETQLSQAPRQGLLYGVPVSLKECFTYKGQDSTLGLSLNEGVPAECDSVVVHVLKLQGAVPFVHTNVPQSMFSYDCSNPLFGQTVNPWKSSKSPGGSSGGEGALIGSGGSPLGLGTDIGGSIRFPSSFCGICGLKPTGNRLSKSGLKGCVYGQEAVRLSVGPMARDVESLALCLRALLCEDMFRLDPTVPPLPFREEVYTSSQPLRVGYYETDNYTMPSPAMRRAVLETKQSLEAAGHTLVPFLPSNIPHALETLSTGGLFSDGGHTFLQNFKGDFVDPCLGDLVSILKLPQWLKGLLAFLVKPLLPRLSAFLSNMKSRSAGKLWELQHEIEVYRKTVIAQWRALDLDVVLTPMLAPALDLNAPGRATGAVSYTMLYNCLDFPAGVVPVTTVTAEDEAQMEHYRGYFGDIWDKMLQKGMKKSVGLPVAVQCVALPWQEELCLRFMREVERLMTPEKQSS
Assay: FAAH Substrate Evaluation (formation of acid metabolite from amide prodrug)
Assay type: biochemical
Conditions: 0.5 ng/μL rhFAAH, 1 μM test compound, Tris-EDTA buffer pH 8.0, 0.1% BSA, room temperature, 0-60 minutes, LC-MS/MS
Method: Purified recombinant human FAAH (rhFAAH) was purchased from Cayman Chemical (Ann Arbor, MI, USA). The total volume for each incubation was 400 μL containing a final 0.5 ng/μL rhFAAH, 1 μM test compound, 1.25% ethanol or 1 μM PF-3845 (FAAH inhibitor), and 0.1% bovine serum albumin in Tris-EDTA buffer at pH 8.0). The positive control was LL-341001. The incubation was conducted at the room temperature. At 0, 5, 15, 30 and 60 minutes, an aliquot of 30 μL reaction mixtures was removed and mixed with 300 μL acetonitrile containing 5 ng/mL terfenadine and 10 ng/ml tolbutamide as internal standards to quench the reaction. The resulting mixture was centrifuged at 4000 rpm, 4° C. for 15 minutes, and 100 μL supernatant was ready for LC-MS/MS analysis to measure the formation of acid metabolite.
Acquity Ultra Performance LC system from Waters was used for sample analysis. The chromatography was performed on a reverse phase Kinetex 2.6 μm C18 column, 2.1×30 mm, 100 Å. The mobile phase A comprised of 0.1% formic acid in water and mobile phase B comprised of 0.1% formic acid in acetonitrile with a 2-min run time at the flow rate of 0.8 mL/min for the acid metabolite from positive control or a 1.5 min run time at the flow rate of 0.9 mL/min for the acid metabolite of test compounds. The mass spectrometer (API-5500 and API Q Trap 4000 Applied Biosystems/MDS SCIEX Instruments, Framingham, MA, USA) was operated under ESI positive or negative ion MRM mode.
The formation of acid metabolite was monitored and quantified using one calibration point of 1 μM. The observed rate constant (ke) for the acid metabolite formation was calculated by plotting the metabolite concentration versus time of incubation with the slope being ke and is shown in Table 1.

Compound | ke (observed rate constant for the acid metabolite formation)
C[C@H]1Cc2cc(OCCCC(F)(F)F)ccc2C=C1CN1CC(C(=O)Nc2ccncc2)C1 [Compound 24, (S)-1-((3-methyl-6-(4,4,4-trifluorobutoxy)-3,4-dihydronaphthalen-2-yl)methyl)-N-(pyridin-4-yl) azetidine-3-carboxamide] | A (ke is more than or equal to 1.0)
C[C@H]1Cc2cc(OCCCC(F)(F)F)ccc2C=C1CN1CC(C(=O)NCCC(F)(F)F)C1 [Compound 25, (S)-1-((3-methyl-6-(4,4,4-trifluorobutoxy)-3,4-dihydronaphthalen-2-yl)methyl)-N-(3,3,3-trifluoropropyl) azetidine-3-carboxamide] | A (ke is more than or equal to 1.0)
